Results published in publication PMC9703800 (BMC Chemistry, 2022).
Entries after “also recorded” stand apart in the source; their conditions may differ.

Assays:
[1] = molecular target: T1, Acetylcholinesterase (AChE) (Electrophorus electricus, UniProt O42275); test: biochemical; format: biochemical; details: for IC50: isolated compounds, mean ± SD, three experiments, read-out: AChEI (μM), IC50; for inhibition at 40 µg/mL: read-out: AChE inhibition (%)
T1 construct: Type V-S, lyophilized powder, from electric eel; purchased Sigma-Aldrich; host or cells: electric eel (natural source)

[2] = molecular target: butyrylcholinesterase (BChE) (Equus caballus, UniProt P81908); test: biochemical; format: biochemical; details: for IC50: isolated compounds, mean ± SD, three experiments, read-out: BChEI (μM), IC50; for inhibition at 40 µg/mL: read-out: BChE inhibition (%)
AChE = molecular target: T2, AChE (Electrophorus electricus, UniProt O42275); test: Kinetic study of AChE inhibition (Lineweaver-Burk); format: biochemical
T2 construct: Type V-S, lyophilized powder, from electric eel; purchased Sigma-Aldrich; host or cells: electric eel (natural source)
Experimental: (§1) Kinetic studies of compound 2 were performed for the inhibition of ChEs based on the Ellman's method, using various concentrations of the inhibitor [14]. […]

BChE = BChE (Equus caballus, UniProt P81908); test: Kinetic study of BChE inhibition (Lineweaver-Burk); format: biochemical
Experimental: as §1

PC12 cells = test: Neuroprotectivity against H2O2-induced cell death in PC12 cells (MTT); format: cell-based; details: 50 µM, positive control, H2O2 400 μM

T2 sequence (O42275 24-633): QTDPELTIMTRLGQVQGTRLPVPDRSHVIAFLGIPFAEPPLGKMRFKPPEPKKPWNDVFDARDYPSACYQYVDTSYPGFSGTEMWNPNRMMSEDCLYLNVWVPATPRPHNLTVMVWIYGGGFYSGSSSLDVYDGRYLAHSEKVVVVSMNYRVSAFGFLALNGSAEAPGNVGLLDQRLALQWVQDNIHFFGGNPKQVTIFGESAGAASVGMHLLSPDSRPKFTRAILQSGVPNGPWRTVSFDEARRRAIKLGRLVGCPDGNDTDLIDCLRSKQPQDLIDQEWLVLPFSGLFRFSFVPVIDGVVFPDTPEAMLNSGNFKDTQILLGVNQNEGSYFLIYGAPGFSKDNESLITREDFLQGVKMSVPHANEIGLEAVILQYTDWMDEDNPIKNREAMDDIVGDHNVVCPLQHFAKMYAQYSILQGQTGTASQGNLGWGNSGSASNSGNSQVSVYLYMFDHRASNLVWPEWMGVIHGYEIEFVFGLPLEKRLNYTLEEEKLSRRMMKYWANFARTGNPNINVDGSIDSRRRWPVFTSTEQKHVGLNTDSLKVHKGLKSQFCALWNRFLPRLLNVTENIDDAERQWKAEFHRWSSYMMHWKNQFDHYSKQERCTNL
T1 sequence (O42275 24-633): as above
Sequence of BChE (P81908 whole entry): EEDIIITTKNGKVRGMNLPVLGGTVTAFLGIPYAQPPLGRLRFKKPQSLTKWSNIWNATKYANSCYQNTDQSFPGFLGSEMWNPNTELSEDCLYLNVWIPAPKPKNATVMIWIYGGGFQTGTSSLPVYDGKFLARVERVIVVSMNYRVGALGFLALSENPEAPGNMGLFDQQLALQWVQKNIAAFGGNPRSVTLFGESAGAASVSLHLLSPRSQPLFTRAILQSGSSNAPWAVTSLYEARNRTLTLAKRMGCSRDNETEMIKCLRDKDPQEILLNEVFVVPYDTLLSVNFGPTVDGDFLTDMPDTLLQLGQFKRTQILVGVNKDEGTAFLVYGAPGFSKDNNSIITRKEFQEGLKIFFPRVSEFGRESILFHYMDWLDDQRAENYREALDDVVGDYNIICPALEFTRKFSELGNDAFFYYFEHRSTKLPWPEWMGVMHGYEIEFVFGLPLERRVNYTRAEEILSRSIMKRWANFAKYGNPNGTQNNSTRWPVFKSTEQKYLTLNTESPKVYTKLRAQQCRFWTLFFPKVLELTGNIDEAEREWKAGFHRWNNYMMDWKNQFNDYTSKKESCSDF
Sequence of butyrylcholinesterase (BChE) (P81908 whole entry): as above

With `O=C(CCCCCCCCc1ccccc1)c1c(O)cccc1O` [Compound 1, 1-(2,6-Dihydroxyphenyl)-9-phenylnonan-1-one] the “AChE inhibitory activity (in words)” value [1] was “potent inhibitors; also recorded: strong inhibitors”, the IC50 [1] was 67.4 ± 1.52 µM and the “BChE inhibitory activity (in words)” value [2] was “potent inhibitors; also recorded: strong inhibitors”. It also gave an IC50 [2] of 27.16 ± 0.06 µM.
In the case of `O=C(CCCCCCCCc1ccc(O)c(O)c1)c1c(O)cccc1O` [Compound 2, 1-(2,6-Dihydroxyphenyl)-9-(3,4-dihydroxyphenyl)nonan-1-one], the “AChE inhibitory activity (in words)” value [1] is reported as “potent inhibitors; also recorded: strong inhibitors”, the IC50 [1] is reported as 25 ± 0.95 µM and the “BChE inhibitory activity (in words)” value [2] is reported as “potent inhibitors; also recorded: strong inhibitors”. The IC50 [2] was 22.36 ± 0.03 µM, the “Mechanism of AChE inhibition” value (AChE; Lineweaver-Burk plot) was “non-competitive inhibition; also recorded: non-competitively inhibited” and the Ki (AChE; Lineweaver-Burk, inhibitor 0, 28, 56, 112 μM) was 25 µM. For the same compound, the “Mechanism of BChE inhibition” value (BChE; Lineweaver-Burk plot) was “non-competitive inhibition; also recorded: non-competitively inhibited” and the Ki (BChE; Lineweaver-Burk, inhibitor 0, 14, 28, 56 μM) was 22.4 µM.
Work on `COc1ccc(CC(C)C(C)Cc2ccc(O)c(O)c2)cc1OC` (stereo not drawn) [Compound 3, 4-(4-(3,4-Dimethoxyphenyl)-2,3-dimethylbutyl)benzene-1,2-diol] yielded an inhibition at 40 µg/mL [1] of 0% and an inhibition at 40 µg/mL [2] of 47.4%.
For `COc1cc([C@H]2O[C@@H](c3ccc(O)c(OC)c3)[C@H](C)[C@@H]2C)ccc1O` [Compound 4, 4,4'-((2R,3R,4S,5S)-3,4-Dimethyltetrahydrofuran-2,5-diyl)bis(2-methoxyphenol)], the inhibition at 40 µg/mL [1] was 0% and the inhibition at 40 µg/mL [2] was 45.8%.
Work on `COc1cc(CC(C)C(C)Cc2ccc3c(c2)OCO3)ccc1O` (stereo not drawn) [Compound 5, 4-(4-(Benzo[d][1,3]dioxol-5-yl)-2,3-dimethylbutyl)-2-methoxyphenol] yielded an inhibition at 40 µg/mL [1] of 12.8% and an inhibition at 40 µg/mL [2] of 54.4%.
For `COc1cc(C(OC)C(C)C(C)Cc2ccc3c(c2)OCO3)ccc1O` (stereo not drawn) [Compound 6, 4-(4-(Benzo[d][1,3]dioxol-5-yl)-1-methoxy-2,3-dimethylbutyl)-2-methoxyphenol], the inhibition at 40 µg/mL [1] was 0% and the inhibition at 40 µg/mL [2] was 44%.
`O=c1c(O)c(-c2ccc(O)c(O)c2)oc2cc(O)cc(O)c12` [quercetin] was tested, and the “Neuroprotection (%) against H2O2-induced cell death” value (PC12 cells) was 72.79%.
